Experimental data reported in patent US8440710B2, “HSL inhibitors useful in the treatment of diabetes” (Hoffmann-La Roche Inc., priority 2009, dated 2013).
pIC50: −log10 of the molar value.

Target: T1, human HSL (Homo sapiens, UniProt Q05469)
T1 construct: generate a full length human HSL ORF with a 3′-His6 tag; made in house; host or cells: High 5 insect cells (baculovirus, pFast-BAC)
T1 sequence (Q05469 1-1076): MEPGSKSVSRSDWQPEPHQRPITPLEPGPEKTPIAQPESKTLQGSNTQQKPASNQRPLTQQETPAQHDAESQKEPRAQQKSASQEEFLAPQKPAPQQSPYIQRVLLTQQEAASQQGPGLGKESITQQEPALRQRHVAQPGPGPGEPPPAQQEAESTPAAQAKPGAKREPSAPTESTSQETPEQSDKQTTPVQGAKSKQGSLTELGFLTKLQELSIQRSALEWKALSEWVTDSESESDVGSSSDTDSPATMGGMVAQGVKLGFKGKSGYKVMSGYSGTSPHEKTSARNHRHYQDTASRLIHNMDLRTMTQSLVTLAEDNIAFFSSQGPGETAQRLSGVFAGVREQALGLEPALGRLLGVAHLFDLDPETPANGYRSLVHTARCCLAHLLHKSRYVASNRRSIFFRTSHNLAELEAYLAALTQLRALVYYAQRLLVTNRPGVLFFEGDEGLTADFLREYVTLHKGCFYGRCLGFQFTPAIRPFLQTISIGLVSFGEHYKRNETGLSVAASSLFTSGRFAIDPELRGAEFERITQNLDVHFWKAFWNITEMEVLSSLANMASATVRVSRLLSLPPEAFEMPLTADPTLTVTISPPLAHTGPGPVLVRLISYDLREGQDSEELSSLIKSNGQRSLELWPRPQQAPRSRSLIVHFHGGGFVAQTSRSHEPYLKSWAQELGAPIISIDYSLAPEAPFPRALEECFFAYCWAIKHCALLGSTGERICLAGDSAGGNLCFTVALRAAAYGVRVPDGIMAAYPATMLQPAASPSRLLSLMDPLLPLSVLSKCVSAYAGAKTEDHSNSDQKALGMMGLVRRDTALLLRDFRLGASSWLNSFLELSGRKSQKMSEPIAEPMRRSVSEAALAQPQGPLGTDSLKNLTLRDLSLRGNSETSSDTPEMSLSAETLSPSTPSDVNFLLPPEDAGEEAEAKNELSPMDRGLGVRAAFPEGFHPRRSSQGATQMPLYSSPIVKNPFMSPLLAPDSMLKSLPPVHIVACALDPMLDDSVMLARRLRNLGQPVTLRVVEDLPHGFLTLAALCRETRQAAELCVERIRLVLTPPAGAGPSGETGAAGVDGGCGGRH
Assay: Human Hormone-Sensitive Lipase (HSL) enzyme inhibition assay (colorimetric, DMPT substrate)
Assay type: biochemical
Settings: human full length HSL-His6, 2,3-dimercapto-1-propanol tributyrate substrate, 37° C. 20 minutes, absorbance at 405 nm; read-out: HSL hum IC50
Summary of the method: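 Full-length human HSL with C-terminal His6, expressed in baculovirus-infected High 5 cells and Ni-NTA purified, was added (15 ug/ml stock) to 1.5 mM DMPT in 100 mM MOPS pH 7.2, 0.2 mg/ml fatty acid-free BSA containing compound. After 20 min at 37 °C, DTNB with SDS/Triton X-100 was added; A405 read after 15 min at RT.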

SMILES	pIC50
COCCc1ccc(N2CC[C@]3(CC[C@](O)(CC(C)C)CC3)C2=O)cc1 [Example 125, (5α,8β)-8-Hydroxy-8-isobutyl-2-[4-(2-methoxy-ethyl)-phenyl]-2-aza-spiro[4.5]decan-1-one]	5.74
COCCc1ccc(N2CC[C@]3(CC[C@@](O)(CC(C)(C)C)CC3)C2=O)cc1 [Example 126, (5α,8α)-8-(2,2-Dimethyl-propyl)-8-hydroxy-2-[4-(2-methoxy-ethyl)-phenyl]-2-aza-spiro[4.5]decan-1-one]	8.00
C=C(C)[C@]1(O)CC[C@]2(CCN(c3ccc(CCOC)cc3)C2=O)CC1 [Example 127, (5α,8α)-8-Hydroxy-8-isopropenyl-2-[4-(2-methoxy-ethyl)-phenyl]-2-aza-spiro[4.5]decan-1-one]	6.92
COCCc1ccc(N2CC[C@]3(CC[C@@](O)(C(C)C)CC3)C2=O)cc1 [Example 128, (5α,8α)-8-Hydroxy-8-isopropyl-2-[4-(2-methoxy-ethyl)-phenyl]-2-aza-spiro[4.5]decan-1-one]	7.30
CCCC[C@]1(O)CC[C@]2(CCN(c3ccc(CCOC)cc3)C2=O)CC1 [Example 129, (5α,8α)-8-Butyl-8-hydroxy-2-[4-(2-methoxy-ethyl)-phenyl]-2-aza-spiro[4.5]decan-1-one]	7.70
COCCCc1ccc(N2CC[C@]3(CC[C@@](O)(C(C)C)CC3)C2=O)cc1 [Example 130, (5α,8α)-8-Hydroxy-8-isopropyl-2-(4-(3-methoxypropyl)phenyl)-2-aza-spiro[4.5]decan-1-one]	7.30
CC[C@]1(O)CC[C@]2(CCN(c3ccc(C(C)(C)COC)cc3)C2=O)CC1 [Example 131, (5α,8α)-8-Ethyl-8-hydroxy-2-[4-(2-methoxy-1,1-dimethyl-ethyl)-phenyl]-2-aza-spiro[4.5]decan-1-one]	7.05
CCC[C@]1(O)CC[C@]2(CCN(c3ccc(C(C)(C)COC)cc3)C2=O)CC1 [Example 132, (5α,8α)-8-Hydroxy-2-[4-(2-methoxy-1,1-dimethyl-ethyl)-phenyl]-8-propyl-2-aza-spiro[4.5]decan-1-one]	7.70
C[C@@H](Oc1ccc(N2CC[C@]3(CC[C@@](O)(COCc4ccccc4)CC3)C2=O)cc1)C(F)(F)F [Example 144, (5α,8α)-8-(Benzyloxymethyl)-8-hydroxy-2-[4-((R)-2,2,2-trifluoro-1-methyl-ethoxy)-phenyl]-2-aza-spiro[4.5]decan-1-one]	8.00
CC(C)[C@]1(O)CC[C@]2(CCN(c3ccc(O[C@@H](C)C(F)(F)F)nc3)C2=O)CC1 [Example 148, (5α,8α)-8-Hydroxy-8-isopropyl-2-[6-((S)-2,2,2-trifluoro-1-methyl-ethoxy)pyridin-3-yl]-2-aza-spiro[4.5]decan-1-one]	7.70
CC(C)[C@]1(O)CC[C@@]2(CCN(c3ccc(O[C@@H](C)C(F)(F)F)nc3)C2=O)CC1 [Example 149, (5α,8β)-8-Hydroxy-8-isopropyl-2-[6-((S)-2,2,2-trifluoro-1-methyl-ethoxy)pyridin-3-yl]-2-aza-spiro[4.5]decan-1-one]	5.78
CC(C)[C@]1(O)CC[C@]2(CCN(c3ccc(O[C@H](C)C(F)(F)F)nc3)C2=O)CC1 [Example 150, (5α,8α)-8-Hydroxy-8-isopropyl-2-[6-((R)-2,2,2-trifluoro-1-methyl-ethoxy)-pyridin-3-yl]-2-aza-spiro[4.5]decan-1-one]	7.70
CC(C)[C@]1(O)CC[C@@]2(CCN(c3ccc(O[C@H](C)C(F)(F)F)nc3)C2=O)CC1 [Example 151, (5α,8β)-8-Hydroxy-8-isopropyl-2-[6-((R)-2,2,2-trifluoro-1-methyl-ethoxy)pyridin-3-yl]-2-aza-spiro[4.5]decan-1-one]	5.73

Further lines, results first:

pIC50	SMILES
7.30	CCC[C@]1(O)CC[C@]2(CCN(c3ccc([C@H](O)C(F)(F)F)cc3)C2=O)CC1 [Example 133a, (5α,8α)-8-Hydroxy-8-propyl-2-[4-((S)-2,2,2-trifluoro-1-hydroxy-ethyl)-phenyl]-2-aza-spiro[4.5]decan-1-one]
7.52	CCC[C@]1(O)CC[C@]2(CCN(c3ccc([C@@H](O)C(F)(F)F)cc3)C2=O)CC1 [Example 133b, (5α,8α)-8-Hydroxy-8-propyl-2-[4-((R)-2,2,2-trifluoro-1-hydroxy-ethyl)-phenyl]-2-aza-spiro[4.5]decan-1-one]
5.93	CCC[C@]1(O)CC[C@@]2(CCN(c3ccc(C(O)C(F)(F)F)cc3)C2=O)CC1 (stereo partly drawn) [Example 134, (5α,8β)-8-Hydroxy-8-propyl-2-(4-(2,2,2-trifluoro-1-hydroxyethyl)phenyl)-2-aza-spiro[4.5]decan-1-one]
7.70	CC(C)[C@]1(O)CC[C@]2(CCN(c3ccc([C@@H](O)C(F)(F)F)cc3)C2=O)CC1 [Example 135, (5α,8α)-8-Hydroxy-8-isopropyl-2-[4-((R)-2,2,2-trifluoro-1-hydroxy-ethyl)-phenyl]-2-aza-spiro[4.5]decan-1-one]
5.56	CC(C)[C@]1(O)CC[C@@]2(CCN(c3ccc([C@@H](O)C(F)(F)F)cc3)C2=O)CC1 [Example 136, (5α,8β)-8-Hydroxy-8-isopropyl-2-(4-((R)-2,2,2-trifluoro-1-hydroxy-ethyl)-phenyl)-2-aza-spiro[4.5]decan-1-one]
8.00	CO[C@H](c1ccc(N2CC[C@]3(CC[C@@](O)(C(C)C)CC3)C2=O)cc1)C(F)(F)F [Example 137, (5α,8α)-8-Hydroxy-8-isopropyl-2-(4-((R)-2,2,2-trifluoro-1-methoxyethyl)phenyl)-2-aza-spiro[4.5]decan-1-one]
7.00	COC[C@]1(O)CC[C@]2(CCN(c3ccc([C@@H](O)C(F)(F)F)cc3)C2=O)CC1 [Example 138, (5α,8α)-8-Hydroxy-8-(methoxymethyl)-2-(4-((R)-2,2,2-trifluoro-1-hydroxyethyl)phenyl)-2-aza-spiro[4.5]decan-1-one]
7.40	COC[C@]1(O)CC[C@]2(CCN(c3ccc([C@@H](OC)C(F)(F)F)cc3)C2=O)CC1 [Example 139, (5α,8α)-8-Hydroxy-8-(methoxymethyl)-2-(4-((R)-2,2,2-trifluoro-1-methoxyethyl)phenyl)-2-aza-spiro[4.5]decan-1-one]
6.80	CCO[C@H](c1ccc(N2CC[C@]3(CC[C@@](O)(COC)CC3)C2=O)cc1)C(F)(F)F [Example 140, (5α,8α)-2-(4-((R)-1-Ethoxy-2,2,2-trifluoroethyl)phenyl)-8-hydroxy-8-(methoxymethyl)-2-aza-spiro[4.5]decan-1-one]
7.52	CCCO[C@H](c1ccc(N2CC[C@]3(CC[C@@](O)(COC)CC3)C2=O)cc1)C(F)(F)F [Example 141, (5α,8α)-8-Hydroxy-8-(methoxymethyl)-2-(4-((R)-2,2,2-trifluoro-1-propoxyethyl)phenyl)-2-aza-spiro[4.5]decan-1-one]
8.00	C=CC[C@]1(O)CC[C@]2(CCN(c3ccc(O[C@H](C)C(F)(F)F)cc3)C2=O)CC1 [Example 142, (5α,8α)-8-Allyl-8-hydroxy-2-[4-((R)-2,2,2-trifluoro-1-methyl-ethoxy)-phenyl]-2-aza-spiro[4.5]decan-1-one]
5.83	C=CC[C@]1(O)CC[C@@]2(CCN(c3ccc(O[C@H](C)C(F)(F)F)cc3)C2=O)CC1 [Example 143, (5α,8β)-8-Allyl-8-hydroxy-2-[4-((R)-2,2,2-trifluoro-1-methyl-ethoxy)-phenyl]-2-aza-spiro[4.5]decan-1-one]
6.41	C[C@@H](Oc1ccc(N2CC[C@]3(CC[C@@](O)(CO)CC3)C2=O)cc1)C(F)(F)F [Example 145, (5α,8α)-8-Hydroxy-8-(hydroxymethyl)-2-[4-((R)-2,2,2-trifluoro-1-methyl-ethoxy)-phenyl]-2-aza-spiro[4.5]decan-1-one]
7.70	COC[C@]1(O)CC[C@]2(CCN(c3ccc(O[C@@H](C)C(F)(F)F)cc3)C2=O)CC1 [Example 146, (5α,8α)-8-Hydroxy-8-methoxymethyl-2-[4-((S)-2,2,2-trifluoro-1-methyl-ethoxy)-phenyl]-2-aza-spiro[4.5]decan-1-one]
7.52	COC[C@]1(O)CC[C@]2(CCN(c3ccc(O[C@H](C)C(F)(F)F)cc3)C2=O)CC1 [Example 147, (5α,8α)-8-Hydroxy-8-(methoxymethyl)-2-[4-((R)-2,2,2-trifluoro-1-methyl-ethoxy)-phenyl]-2-aza-spiro[4.5]decan-1-one]
